The nature of series [1]: Hepatocyte stability assay, dog. In kind it is in vitro ADME. To be noted: Beagle Dog. Here is the method: BioreclamationIVT (Baltimore, MD) provided the cryopreserved hepatocytes, hepatocyte thawing (HT) medium, and Krebs-Henseleit buffer (KHB) medium. The stock solution concentration was 1 M in DMSO and was then diluted further in acetonitrile/water (1:1 v/v). All other chemicals were purchased from Sigma-Aldrich (St. Louis, MO) or Thermo Fisher Scientific (Waltham, MA).
The quench solution used to stop reactions in the hepatocyte incubations was comprised of 100% (v/v) acetonitrile. Internal Standard/Quench (IS/Q) solution used to stop reactions with the positive control also contained 200 nM Labetalol.
Metabolic Stability in Cryopreserved Hepatocytes: Test compounds, or the positive control metabolic substrate, was incubated in suspensions of cryopreserved hepatocytes at a final concentration of 1 μM. Vials containing cryopreserved hepatocytes were removed from liquid nitrogen and immediately immersed in a 37° C. water bath. The vials were swirled gently until the contents had thawed. They were then immediately emptied into 48 mL of pre-warmed thawing medium in a 50 mL conical tube. Cells remaining in the vial were re-suspended with 1.0 mL of pre-warmed thawing medium and added to the conical tube. The tube was capped and then gently inverted several times to re-suspend the hepatocytes. The cell suspension was centrifuged at 500×g for 10 minutes at room temperature and the supernatant discarded. The cell pellet was loosened by gently swirling the centrifuge tube. Non-supplemented KHB medium was added to obtain the appropriate target cell density. The viabilities of all cell preparations were ≥85%, assessed by Trypan blue dye exclusion.
For incubations, aliquots of hepatocyte suspension (250 μL containing a cell concentration of 2×10^6 cells/mL) were added to 250 μL of 2 μM substrate (test compound or positive control) in supplemented KHB in duplicate wells in a 24-well plate. Final concentration in the incubations were 1×10^6 cells/mL and 1 μM substrate. A cell-free control incubation (KHB only) was also included. The incubations were carried out with gentle shaking in a 37° C. incubator under a humid atmosphere of 95% air/5% CO2 (v/v). Aliquots (100 μL) were removed after 0, 1, 3, and 6 hours and added to 200 μL quenching solution. The samples were then placed on a shaker for 10 min followed by centrifugation at 3000×g for 20 min. The supernatant was transferred to a new plate and diluted with 100 μL of water to reduce the organic content and then placed on a shaker for 10 mins. Samples were injected and analyzed with methods described below.
Liquid Chromatography: Quantification of positive control and test compound was performed by analyte/internal standard peak area ratios (PAR) measured on a Thermo Scientific™ Q Exactive™ Hybrid Quadrupole-Orbitrap Mass Spectrometer MS/MS with an electrospray interface operating in positive ion mode. The mass spectrometer was coupled to a Dionex Ultimate® 3000 HPLC system. Samples (10 μL aliquots) were injected with a Leap Technologies HTC PAL autosampler. For positive control, the column used was a Thermo Scientific™ Hypersil GOLD™ HPLC column ([…], 50×2.1 mm). Mobile phase A consisted of 95% (v/v) water, 5% (v/v) acetonitrile, and contained 0.1% (v/v) formic acid (FA). Mobile phase B consisted of 95% (v/v) acetonitrile, 5% (v/v) water, and contained 0.1% (v/v) FA. Elution was achieved, at a flow rate of 0.5 mL/min, by a series of linear gradients: initial condition was 5% B at 0 min, isocratic for 20 seconds; then linear gradient to 95% B over 90 seconds, followed by isocratic for 60 seconds at 95% B, and re-equilibrated to initial conditions over 70 seconds.
Metabolic stabilities of positive control and test compound were determined by measuring the rates of disappearance of the parent with time by determining the % of parent remaining at time t (Ct) {Obach 1997}.
Data (% of parent remaining) were plotted on a semi-log scale and fitted using an exponential fit: […]

In series [2] the test system is Symmetric Di-methyl Arginine (SDMA) signal (PRMT5 inhibition) in HCT116 MTAP-deleted cells. Nature of the series: Symmetric di-methyl arginine image-based high content screen assay (SDMA assay), HCT116 MTAP-deleted. The format is cell-based. The note with it: for EC50: Homo sapiens, HCT-116, HCT116 MTAP-deleted, class symbols. A digest of the protocol:
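Read-out is imaging of per-cell mean SDMA immunofluorescence (Alexa 488), with cells segmented by DAPI. Cells, MTAP-deleted or wild-type HCT116, were exposed to compound for 3 days at 37 °C before fixation. EC50 derived by 4-parameter non-linear logistic regression.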

Series [3] is described as follows: Hepatocyte stability assay, human. To be noted: human hepatocytes, 1 μM. In kind it is in vitro ADME. A digest of the protocol: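 Cryopreserved hepatocytes (viability ≥85%) incubated with 1 μM compound at 1×10^6 cells/mL in KHB, 37 °C, 95% air/5% CO2, sampled at 0, 1, 3 and 6 h. Parent remaining quantified by LC-MS/MS; half-life from first-order exponential fit (ln2/k), scaled to intrinsic hepatic clearance.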

Series [4] can be described thus: PK data (IV/PO) in Sprague-Dawley rat. In kind it is in vivo. To be noted: Sprague-Dawley, rat, in vivo; for half-life / clearance / Vd: iv; for clearance: read-out: Observed CL (converted); for Vd: read-out: Vss; for bioavailability: po.
[5] abbreviates: HCT116 WT vs HCT116 MTAP-deleted.
The mark [6] stands for this setting: HCT116 WT versus HCT116 MTAP-deleted.

Where two headings read alike, the source gives them in different places. Some results are limits rather than exact numbers.

Take `Nc1nc2cnc(C(=O)N3CCC[C@@H]4Oc5cc(C(F)(F)F)cc(F)c5[C@@H]43)cc2n2cncc12` (single isomer, unassigned) [Fg-53]: in series [1], the “Predicted Hepatocyte CL” value is 10.2 mL/min/kg. The molecule further showed an EC50 selectivity in series [2] (setting [5]) of 85. The molecule also came in with an EC50 in series [2] of no more than 1 nM. In addition, in series [3], the “Human Predicted Hepatocyte CL” value is 2.83 mL/min/kg. In series [4] (0.33 mg/kg, IV 0.33 mg/Kg), the half-life is 4.6 h, the clearance was 7.33 mL/min/kg and the Vd was found to be 2.45 L/kg. In addition, the bioavailability in series [4] (1.66 mg/kg, PO 1.66 mg/Kg) is 120%.

For `Nc1nc2cnc(C(=O)N3CCC[C@@H]4Oc5cc(OC(F)(F)F)cc(F)c5[C@@H]43)cc2n2cncc12` (single isomer, unassigned) [Fg-55], the “Predicted Hepatocyte CL” value in series [1] is 12.5 mL/min/kg. The molecule also yielded an EC50 selectivity in series [2] (setting [5]) of 114. In series [2], this molecule had an EC50 of no more than 1 nM. Besides, the “Human Predicted Hepatocyte CL” value in series [3] is 4 mL/min/kg. Besides, in series [4] (0.33 mg/kg, IV 0.33 mg/Kg), the half-life was 6 h, the clearance is 3.5 mL/min/kg and the Vd came to 1.73 L/kg. Besides, the bioavailability in series [4] (1.66 mg/kg, PO 1.66 mg/Kg) amounted to 99%.

Consider `Nc1nc2ccc(C(=O)N3CCC[C@@H]4Oc5cc(C(F)(F)F)ccc5[C@@H]43)cc2n2cncc12` [Ff-111, (4-aminoimidazo[1,5-a]quinoxalin-8-yl)((4aS,9bS)-7-(trifluoromethyl)-3,4,4a,9b-tetrahydrobenzofuro[3,2-b]pyridin-1(2H)-yl)methanone], for which, in series [1], the “Predicted Hepatocyte CL” value was 12.3 mL/min/kg. This molecule also had an EC50 selectivity in series [2] (setting [6]) of 258. For the same molecule, in series [2], the EC50 was no more than 1 nM. The “Human Predicted Hepatocyte CL” value in series [3] was 5.83 mL/min/kg. In series [4] (0.33 mg/kg, IV 0.33 mg/Kg), the half-life is 5.9 h, the clearance is 2.5 mL/min/kg and the Vd was 1.29 L/kg.

On to `Cc1ncc2c(N)nc3cnc(C(=O)N4CCC[C@@H]5Oc6cc(OC(F)(F)F)ccc6[C@@H]54)cc3n12` [Ff-340, (4-amino-1-methylimidazo[1,5-a]pyrido[3,4-e]pyrazin-8-yl)((4aS,9bS)-7-(trifluoromethoxy)-3,4,4a,9b-tetrahydrobenzofuro[3,2-b]pyridin-1(2H)-yl)methanone], for which the “Predicted Hepatocyte CL” value in series [1] was 12 mL/min/kg. Besides, the EC50 selectivity in series [2] (setting [6]) stood at 135. Further, in series [2], the half-maximal effective concentration (EC50) is no more than 1 nM. For the same molecule, in series [3], the “Human Predicted Hepatocyte CL” value was 5 mL/min/kg. For the same molecule, in series [4] (0.33 mg/kg, IV 0.33 mg/Kg), the half-life was 5.3 h, the clearance is 8.83 mL/min/kg and the Vd is 3.2 L/kg.

Take `Nc1nc2cnc(C(=O)N3CCC[C@@H]4Oc5cc(OC(F)(F)F)ccc5[C@@H]43)cc2n2cncc12` [Ff-341, (4-aminoimidazo[1,5-a]pyrido[3,4-e]pyrazin-8-yl)((4aS,9bS)-7-(trifluoromethoxy)-3,4,4a,9b-tetrahydrobenzofuro[3,2-b]pyridin-1(2H)-yl)methanone]: the “Predicted Hepatocyte CL” value in series [1] is 12.3 mL/min/kg. The molecule also registered an EC50 selectivity in series [2] (setting [6]) of 145. Further, the EC50 in series [2] was no more than 1 nM. Also, in series [3], the “Human Predicted Hepatocyte CL” value is 3.67 mL/min/kg. For the same molecule, in series [4] (0.25 mg/kg, IV 0.25 mg/Kg), the half-life was 4.6 h, the clearance was 3.5 mL/min/kg and the Vd was 1.45 L/kg. Also, in series [4] (1.25 mg/kg, PO 1.25 mg/Kg), the bioavailability was found to be 99%.

The values are drawn from patent US12448388B2, “PRMT5 inhibitors and uses thereof” (Gilead Sciences, Inc., priority 2023, dated 2025).
